Results: article PMC12069442 (Frontiers in Pharmacology, 2025)
“Also recorded” adds a separate entry of the source. Structures can show the parent of a compound that is named as a salt.

tested on: rat liver microsomes (RLM); assay: Kinetics inhibitory assay of quercetin on ziprasidone metabolism in RLM; type: in vitro ADME; conditions: RLM

Compound | α
O=c1c(O)c(-c2ccc(O)c(O)c2)oc2cc(O)cc(O)c12 [quercetin, Quercetin] | 0.96

same assay, conditions: RLM 0.3 mg/mL, ziprasidone 10 μM, quercetin 0–100 μM, n=3

Compound | IC50 [µM]
O=c1c(O)c(-c2ccc(O)c(O)c2)oc2cc(O)cc(O)c12 [quercetin, Quercetin] | 13.8 ± 0.3

same assay, conditions: RLM, Lineweaver-Burk secondary plot

Compound | Ki [µM] | αKi [µM]
O=c1c(O)c(-c2ccc(O)c(O)c2)oc2cc(O)cc(O)c12 [quercetin, Quercetin] | 30.7 | 29.4

same assay, conditions: RLM, ziprasidone 2.5–20 μM, quercetin 0, 6.5, 13, 26 μM

Compound | Inhibition type
O=c1c(O)c(-c2ccc(O)c(O)c2)oc2cc(O)cc(O)c12 [quercetin, Quercetin] | mixed inhibitory mechanism; also recorded: mixed inhibition

tested on: rat liver microsomes (RLM); assay: Inhibitor screening on ziprasidone metabolism in RLM; type: in vitro ADME; conditions: 100 μM inhibitor, 0.3 mg/mL RLM, ziprasidone 10 μM, 20 min

Compound | Relative activity (%)
O=C(NC[C@H]1CN(c2ccc(N3CCOCC3=O)cc2)C(=O)O1)c1ccc(Cl)s1 [Rivaroxaban] | 102.37 ± 4.89
CCCCc1oc2ccc(NS(C)(=O)=O)cc2c1C(=O)c1ccc(OCCCN(CCCC)CCCC)cc1 [Dronedarone Hydrochloride] | 23.67 ± 11.05
COc1ccccc1OCCNCC(O)COc1cccc2[nH]c3ccccc3c12 (stereo not drawn) [Carvedilol] | 29.89 ± 3.28
CCOc1nc2cccc(C(=O)O)c2n1Cc1ccc(-c2ccccc2-c2nc(=O)o[nH]2)cc1 [Azilsartan] | 92.59 ± 5.86
O=c1cc(-c2ccccc2)oc2cc(O)cc(O)c12 [Chrysin] | 36.09 ± 19.09
C=C[C@H]1C[N@@]2CC[C@H]1C[C@@H]2[C@@H](O)c1ccnc2ccc(OC)cc12 [Quinidine] | 83.40 ± 4.78
CC(C)[C@]12O[C@H]1[C@@H]1O[C@]13[C@]1(O[C@H]1C[C@H]1C4=C(CC[C@@]13C)C(=O)OC4)[C@@H]2O [Triptolide] | 87.47 ± 5.70
CCN(CC)CC(=O)Nc1c(C)cccc1C [Lidocaine] | 93.56 ± 10.94
COc1ccc(C(C)=O)c(O)c1 [Paeonol] | 108.77 ± 3.51
CCCCc1nc(Cl)c(CO)n1Cc1ccc(-c2ccccc2-c2nn[nH]n2)cc1 [Losartan] | 74.09 ± 5.29
O=C(O)[C@H]1O[C@@H](Oc2cc3oc(-c4ccccc4)cc(=O)c3c(O)c2O)[C@H](O)[C@@H](O)[C@@H]1O [Baicalin] | 87.83 ± 13.63
C[C@@H]1C(=O)O[C@H](C)[C@H]1C[C@@H](O)[C@](C)(O)[C@H]1CC[C@@]2(O)C3=CC(=O)[C@@H]4C[C@@H](O)[C@@H](O)C[C@]4(C)[C@H]3CC[C@]12C [Cyasterone] | 83.75 ± 6.16
CCN(CC)CCNC(=O)c1ccc(N)cc1 [Procainamide hydrochloride] | 113.37 ± 13.44
CCCCC1=NC2(CCCC2)C(=O)N1Cc1ccc(-c2ccccc2-c2nnn[nH]2)cc1 [Irbesartan] | 72.41 ± 4.72
O=c1c(-c2ccc(O)cc2)coc2cc(O)ccc12 [Daidzein] | 121.70 ± 5.16
CCCc1nc2c(C)cc(-c3nc4ccccc4n3C)cc2n1Cc1ccc(-c2ccccc2C(=O)O)cc1 [Telmisartan] | 64.19 ± 12.39
CCOC(=O)C1=C(C)NC(C)=C(C(=O)OC)C1c1cccc(Cl)c1Cl (stereo not drawn) [Felodipine] | 28.36 ± 1.67
CC(C)(O)[C@H]1CC[C@@](C)([C@H]2[C@@H](O)C[C@@]3(C)[C@@H]4C[C@H](O[C@@H]5O[C@H](CO)[C@@H](O)[C@H](O)[C@H]5O)[C@H]5C(C)(C)[C@@H](O[C@@H]6OC[C@@H](O)[C@H](O)[C@H]6O)CC[C@@]56C[C@@]46CC[C@]23C)O1 [Astragaloside A] | 107.37 ± 18.93
CCOC(=O)C1=C(COCCN)NC(C)=C(C(=O)OC)C1c1ccccc1Cl (stereo not drawn) [Amlodipine] | 24.44 ± 2.51
O=C1CCc2cc(OCCCCc3nnnn3C3CCCCC3)ccc2N1 [Cilostazol] | 55.05 ± 0.99
CCCN1CCCC[C@H]1C(=O)Nc1c(C)cccc1C [Ropivacaine hydrochloride] | 102.42 ± 0.84
C=C1C[C@@]23CC[C@H]4[C@@](C)(CCC[C@@]4(C)C(=O)O[C@@H]4O[C@H](CO)[C@@H](O)[C@H](O)[C@H]4O)[C@@H]2CC[C@]1(O[C@@H]1O[C@H](CO)[C@@H](O)[C@H](O)[C@H]1O)C3 [Rubusoside] | 103.75 ± 2.05
COc1cc(C2Oc3cc([C@H]4Oc5cc(O)cc(O)c5C(=O)[C@@H]4O)ccc3OC2CO)ccc1O (stereo partly drawn) [Silibinin] | 45.13 ± 1.52

Compound | Relative activity (%)
CCOc1nc2cccc(C(=O)O)c2n1Cc1ccc(-c2ccccc2-c2nnn[nH]2)cc1 [Candesartan] | 54.29 ± 3.95
COC(=O)[C@H](c1ccccc1Cl)N1CCc2sccc2C1 [Clopidogrel hydrogen sulfate] | 179.48 ± 15.80
COc1ccc(-c2coc3cc(O)ccc3c2=O)cc1O [Calycosin] | 104.22 ± 12.51
O=c1cc(-c2ccc(O)cc2)oc2cc(O)cc(O)c12 [Apigenin] | 31.41 ± 2.56
COc1cc2ncnc(Nc3ccc(F)c(Cl)c3)c2cc1OCCCN1CCOCC1 [Gefitinib] | 36.20 ± 0.61
COCCOC(=O)C1=C(C)NC(C)=C(C(=O)OC(C)C)C1c1cccc([N+](=O)[O-])c1 (stereo not drawn) [Nimodipine] | 49.68 ± 0.53
O=c1c(O)c(-c2cc(O)c(O)c(O)c2)oc2cc(O)cc(O)c12 [Myricetin] | 2.64 ± 1.71
O=C(/C=C/c1ccc(O)c(O)c1)O[C@@H]1C[C@](O)(C(=O)O)C[C@@H](O)[C@H]1O [Chlorogenic acid] | 91.52 ± 17.97
COc1cc2c(c(OC)c1OC)-c1c(cc(OC)c(OC)c1OC)C[C@H](C)[C@H](C)C2 [Schisandrin A] | 69.51 ± 11.79
Cc1cc(O)c2c(c1)C(=O)c1cc(O)cc(O)c1C2=O [Emodin] | 25.64 ± 3.15
Clc1cccc(Cl)c1N=C1NCCN1 [Clonidine hydrochloride] | 74.70 ± 0.47
COc1cc(CCC(C)=O)ccc1O [Vanillylacetone] | 93.56 ± 3.00
COc1c(O[C@@H]2O[C@H](C(=O)O)[C@@H](O)[C@H](O)[C@H]2O)cc(O)c2c(=O)cc(-c3ccccc3)oc12 [Wogonoside] | 92.55 ± 1.09
CCCSc1nc(N[C@@H]2C[C@H]2c2ccc(F)c(F)c2)c2nnn([C@@H]3C[C@H](OCCO)[C@@H](O)[C@H]3O)c2n1 [Ticagrelor] | 36.84 ± 20.49
CCCCc1nc(Cl)c(CO)n1Cc1ccc(-c2ccccc2-c2nn[nH]n2)cc1 [Losartan potassium] | 35.58 ± 50.31
CC(C)(O)CNc1nc(Nc2ccnc(C(F)(F)F)c2)nc(-c2cccc(C(F)(F)F)n2)n1 [Enasidenib] | 40.44 ± 1.29
Cucurbitacin B | 117.16 ± 18.74
O=c1cc(-c2ccccc2)oc2cc(O)c(O)c(O)c12 [Baicalein] | 97.20 ± 18.86
CCCCN1CCCCC1C(=O)Nc1c(C)cccc1C (stereo not drawn) [Bupivacaine hydrochloride] | 104.14 ± 92.28
O=C1CCC[C@@H]2[C@H]3CCCN4CCC[C@@H](CN12)[C@@H]34 [Matrine] | 98.65 ± 1.77
OC(CNCC(O)C1CCc2cc(F)ccc2O1)C1CCc2cc(F)ccc2O1 (stereo not drawn) [Nebivolol Hydrochloride] | 63.48 ± 3.34
COc1c(O)cc(O)c2c(=O)cc(-c3ccccc3)oc12 [Wogonin] | 80.85 ± 12.40
CCCCC(=O)N(Cc1ccc(-c2ccccc2-c2nnn[nH]2)cc1)[C@H](C(=O)O)C(C)C [Valsartan] | 44.50 ± 62.94

same assay, conditions: 100 μM inhibitor, RLM

Compound | suppression of the metabolism of ziprasidone
O=c1c(O)c(-c2ccc(O)c(O)c2)oc2cc(O)cc(O)c12 [quercetin, Quercetin] | over 80%
Oc1ccc(/C=C/c2cc(O)cc(O)c2)cc1 [resveratrol, Resveratrol] | over 80%

tested on: not given; assay: not given; design: method as in Ye et al., 2024; conditions: nimodipine coadministration; ref Ye et al., 2024; cited from earlier work

Compound | elevation of AUC | elevation of Cmax
CCN1CCN(c2cc(-c3ccc(F)cc3)c3c(n2)CCCCCC3)CC1 [blonanserin] | more than 2 fold | more than 2 fold

molecular target: CYP3A4.1 (Homo sapiens, UniProt P08684); assay: not given; conditions: not given
Sequence (P08684 whole entry): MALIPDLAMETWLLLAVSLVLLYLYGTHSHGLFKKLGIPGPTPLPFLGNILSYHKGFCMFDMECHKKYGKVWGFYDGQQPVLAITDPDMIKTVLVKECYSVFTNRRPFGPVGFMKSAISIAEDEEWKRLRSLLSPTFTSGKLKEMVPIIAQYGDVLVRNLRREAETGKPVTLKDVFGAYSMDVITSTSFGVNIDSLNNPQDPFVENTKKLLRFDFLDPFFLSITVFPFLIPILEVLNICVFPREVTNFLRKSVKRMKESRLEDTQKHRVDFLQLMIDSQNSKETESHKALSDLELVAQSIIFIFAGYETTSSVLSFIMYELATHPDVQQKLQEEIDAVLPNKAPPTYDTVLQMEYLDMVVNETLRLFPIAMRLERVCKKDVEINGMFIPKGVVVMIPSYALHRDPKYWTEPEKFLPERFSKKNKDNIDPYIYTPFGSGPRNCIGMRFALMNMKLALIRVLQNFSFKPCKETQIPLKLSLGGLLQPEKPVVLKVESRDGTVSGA

Compound | α | αKi [µM]
O=c1c(O)c(-c2ccc(O)c(O)c2)oc2cc(O)cc(O)c12 [quercetin, Quercetin] | 0.66 | 10.06

molecular target: human liver microsomes (HLM) (Homo sapiens, UniProt P08684); assay: Kinetics inhibitory assay of quercetin on ziprasidone metabolism in HLM; type: in vitro ADME; conditions: not given
Sequence (P08684 2-503): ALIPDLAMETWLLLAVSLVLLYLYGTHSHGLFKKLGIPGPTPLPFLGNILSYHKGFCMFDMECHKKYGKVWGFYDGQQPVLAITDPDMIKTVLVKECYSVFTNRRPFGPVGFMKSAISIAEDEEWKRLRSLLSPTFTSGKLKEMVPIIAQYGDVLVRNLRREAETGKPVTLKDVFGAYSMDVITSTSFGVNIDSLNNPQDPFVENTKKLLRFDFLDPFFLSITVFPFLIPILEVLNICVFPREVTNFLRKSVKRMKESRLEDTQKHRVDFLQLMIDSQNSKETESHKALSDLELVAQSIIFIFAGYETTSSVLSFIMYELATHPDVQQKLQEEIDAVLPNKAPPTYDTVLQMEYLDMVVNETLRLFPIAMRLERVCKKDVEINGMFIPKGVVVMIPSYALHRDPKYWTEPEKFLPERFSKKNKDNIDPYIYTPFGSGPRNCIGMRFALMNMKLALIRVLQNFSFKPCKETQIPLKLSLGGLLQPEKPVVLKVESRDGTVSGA

Compound | α
O=c1c(O)c(-c2ccc(O)c(O)c2)oc2cc(O)cc(O)c12 [quercetin, Quercetin] | 0.21

same assay, conditions: Lineweaver-Burk secondary plot

Compound | αKi [µM]
O=c1c(O)c(-c2ccc(O)c(O)c2)oc2cc(O)cc(O)c12 [quercetin, Quercetin] | 4.66

tested on: human liver microsomes (HLM) (Homo sapiens); assay: as above; type: in vitro ADME; conditions: ziprasidone 2.5–20 μM, quercetin 0, 6.25, 12.5, 25 μM
Sequence (P08684 2-503): as above

Compound | Inhibition type
O=c1c(O)c(-c2ccc(O)c(O)c2)oc2cc(O)cc(O)c12 [quercetin, Quercetin] | mixed inhibitory mechanism; also recorded: mixed inhibition
